Twelve compounds from ChEMBL document CHEMBL1201862, “PubChem BioAssay data set” (2004) can be followed below.

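The compound was tested at five concentrations on cells cultured in 96-well plates, with a 48-hour exposure period. GI50 is the concentration that inhibits growth by half.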 The source made the active and inactive calls. Cut-off read from the data, not from the text of the source: active = GI50 up to about 1.1 µM and inactive = higher.

Test systems include OVCAR-3; Malme-3M; K562; SF-539; ACHN; Hs-578T; NCI/ADR-RES; T47D; HL-60; LOX IMVI; SK-OV-3; SN12C; KM12; MDA-MB-231; SK-MEL-5; TK-10; SNB-19; SNB-75; UO-31; LXFL 529.
Assay in all cases: DTP human tumour cell line panel, 48 h

Usually GI50 stands for the concentration that inhibits growth by half. Take `Cc1cc2cc3c(O)nc(O)nc3nc2cc1C`: the GI50 in the experiment with OVCAR-3, with Malme-3M, in the experiment with K562, in the experiment on SF-539, with ACHN and in the experiment on Hs-578T was > 100 µM (inactive) each time. Moreover, the GI50 with NCI/ADR-RES, in the experiment on T47D, in the experiment on HL-60, with LOX IMVI, in the experiment with SK-OV-3 and in the experiment with SN12C was > 100 µM (inactive) each time. The GI50 was > 100 µM (inactive) with KM12; > 100 µM (inactive) in the experiment with MDA-MB-231; > 100 µM (inactive) in the experiment with SK-MEL-5; > 100 µM (inactive) in the experiment with TK-10; > 100 µM (inactive) in the experiment on SNB-19; 27.6 µM (inactive) in the experiment with SNB-75. In addition, in the experiment with UO-31, the GI50 was > 100 µM (inactive).
As to `N#CC1(Nc2ccc(-c3ccc(NC4(C#N)CCCC4)cc3)cc2)CCCC1`, the GI50 in the experiment with OVCAR-3 was > 100 µM (inactive); with Malme-3M, > 100 µM (inactive); in the experiment on K562 it was > 100 µM (inactive); in the experiment on SF-539, 11.8 µM (inactive); in the experiment with ACHN, 34.9 µM (inactive); in the experiment with Hs-578T, > 100 µM (inactive). In addition, the GI50 with NCI/ADR-RES, in the experiment with T47D, in the experiment on HL-60, in the experiment on LOX IMVI, in the experiment on SK-OV-3 and in the experiment on SN12C was > 100 µM (inactive) throughout. The GI50 with KM12 was > 100 µM (inactive); in the experiment with MDA-MB-231 it was > 100 µM (inactive); with SK-MEL-5, 59 µM (inactive); in the experiment with TK-10, > 100 µM (inactive); with SNB-19, > 100 µM (inactive); with SNB-75, > 100 µM (inactive). Further, in the experiment with UO-31, the GI50 was > 100 µM (inactive).
Consider `Cn1cnc([N+](=O)[O-])c1Sc1n[nH]c(-c2ccc(Cl)cc2)n1`, for which the GI50 in the experiment with OVCAR-3 was 18.1 µM (inactive); in the experiment on LXFL 529, 11.7 µM (inactive); in the experiment with Malme-3M it was 11.1 µM (inactive); in the experiment on K562, 13.7 µM (inactive); in the experiment with SF-539, 15.3 µM (inactive); with ACHN, 18.7 µM (inactive). Further, the GI50 in the experiment on LOX IMVI is 15 µM (inactive); with SK-OV-3 it was 30.9 µM (inactive); in the experiment with SN12C, 15.5 µM (inactive); with KM12 it was 18.5 µM (inactive); in the experiment on SK-MEL-5 it was 15.7 µM (inactive); with TK-10, 17.7 µM (inactive). The GI50 with SNB-19 was 20.7 µM (inactive); in the experiment on SNB-75, 18.6 µM (inactive); with UO-31, 19.1 µM (inactive).
Turning to `CCOC(=O)C(=O)CC(=O)C(Br)C(Br)c1ccc(Cl)cc1` (stereo not drawn), the GI50 with OVCAR-3 is 23.3 µM (inactive); with LXFL 529, 16.3 µM (inactive); in the experiment with Malme-3M it was 31.8 µM (inactive); in the experiment on K562, 17.6 µM (inactive); in the experiment with ACHN, 36 µM (inactive); with HL-60, 17.2 µM (inactive). Besides, the GI50 in the experiment on LOX IMVI was 29.2 µM (inactive); in the experiment with SK-OV-3 it was > 100 µM (inactive); in the experiment with SN12C, 30.3 µM (inactive); in the experiment on KM12, 57.9 µM (inactive); in the experiment with SK-MEL-5 it was 57.4 µM (inactive); in the experiment on TK-10 it was 52.2 µM (inactive). In addition, the results for the GI50 with SNB-19, with SNB-75 and in the experiment on UO-31 were 26.4 µM (inactive), > 100 µM (inactive) and > 100 µM (inactive), respectively.
With `C[s+]1c2ccccc2c2ccccc21`, the GI50 with OVCAR-3, with LXFL 529, in the experiment with Malme-3M, with K562, with SF-539 and with ACHN was > 100 µM (inactive) each time. Besides, the GI50 in the experiment on HL-60, in the experiment on LOX IMVI, with SN12C, in the experiment with KM12, with SK-MEL-5 and in the experiment with TK-10 was > 100 µM (inactive) each time. Further, the GI50 in the experiment on SNB-19 is 74.1 µM (inactive); with UO-31, 34.2 µM (inactive).
Consider `O=C1c2ccccc2C(=O)N1CC#CCO`, for which the GI50 in the experiment on OVCAR-3, in the experiment on LXFL 529, in the experiment on K562, with SF-539, with ACHN and in the experiment on HL-60 was > 100 µM (inactive) throughout. Further, the GI50 was 95.5 µM (inactive) in the experiment on SK-OV-3; > 100 µM (inactive) in the experiment on SN12C; > 100 µM (inactive) in the experiment with KM12; > 100 µM (inactive) with SK-MEL-5; > 100 µM (inactive) with TK-10; > 100 µM (inactive) in the experiment on SNB-19. Also, the GI50 in the experiment with UO-31 is > 100 µM (inactive).
As for `COc1cc(OC)c(Oc2cccc(OC)c2OC)c(OC)c1`, the GI50 with OVCAR-3, in the experiment with LXFL 529, in the experiment on K562, in the experiment on SF-539, in the experiment on ACHN and in the experiment with LOX IMVI was > 100 µM (inactive) in each case. Besides, the GI50 was > 100 µM (inactive) with SK-OV-3; > 100 µM (inactive) in the experiment on SN12C; > 100 µM (inactive) with KM12; > 100 µM (inactive) with SK-MEL-5; > 100 µM (inactive) in the experiment on TK-10; 32.1 µM (inactive) with SNB-19. The GI50 in the experiment with SNB-75 and in the experiment on UO-31 was > 100 µM (inactive) in each case.
Take `Cc1cccc(C(C)C)c1NC(=O)C(=O)C(C(=O)c1ccccc1F)C1OC(=O)c2ccccc21` (stereo not drawn): the GI50 in the experiment with OVCAR-3 is 14.4 µM (inactive); with LXFL 529, 11.9 µM (inactive); in the experiment on Malme-3M it was 9.82 µM (inactive); with K562, 20.4 µM (inactive); in the experiment with SF-539, 8.28 µM (inactive); in the experiment with ACHN it was 36.4 µM (inactive). Moreover, the GI50 in the experiment on LOX IMVI was 13.4 µM (inactive); with SK-OV-3 it was 18.9 µM (inactive); with SN12C, 16.6 µM (inactive); with KM12, 19.2 µM (inactive); in the experiment with SK-MEL-5, 14.1 µM (inactive); with TK-10 it was 39.6 µM (inactive). In addition, the GI50 in the experiment on SNB-19 is 10.8 µM (inactive); in the experiment with SNB-75 it was 9.75 µM (inactive); in the experiment on UO-31, 16.8 µM (inactive).
With `CC[C@H](C)N(CCN)C(=O)c1cc2ccccc2c(-c2ccccc2Cl)n1`, the GI50 is 16.6 µM (inactive) in the experiment on OVCAR-3; 3.3 µM (inactive) in the experiment with LXFL 529; 3.05 µM (inactive) in the experiment on K562; 2.15 µM (inactive) in the experiment on SF-539; 14.9 µM (inactive) in the experiment on ACHN; 7.67 µM (inactive) with HL-60. Further, the GI50 with LOX IMVI was 14.3 µM (inactive); in the experiment on SN12C, 18.2 µM (inactive); in the experiment with KM12, 14.9 µM (inactive); in the experiment on TK-10, 12.1 µM (inactive); in the experiment on SNB-19, 16.1 µM (inactive); in the experiment with UO-31 it was 12.7 µM (inactive).
`Nc1ccccc1SCc1csc(-c2ccc(Cl)cc2)n1`: the GI50 was 20.2 µM (inactive) in the experiment on OVCAR-3; 20.3 µM (inactive) in the experiment on Malme-3M; 16.6 µM (inactive) in the experiment with K562; 22.2 µM (inactive) with SF-539; 25.6 µM (inactive) in the experiment with ACHN; 28.2 µM (inactive) in the experiment with Hs-578T. Further, the GI50 in the experiment with NCI/ADR-RES was 21.5 µM (inactive); with T47D it was 5.07 µM (inactive); in the experiment with HL-60, 3.52 µM (inactive); with LOX IMVI it was 16.9 µM (inactive); with SK-OV-3 it was 31.7 µM (inactive); in the experiment on SN12C, 16.6 µM (inactive). The GI50 was 20 µM (inactive) in the experiment with KM12; 21.3 µM (inactive) in the experiment on MDA-MB-231; 14.8 µM (inactive) with SK-MEL-5; 38.1 µM (inactive) in the experiment with TK-10; 32.3 µM (inactive) with SNB-19; 46.7 µM (inactive) with SNB-75. Also, the GI50 in the experiment on UO-31 was 15.8 µM (inactive).
In the case of `CCCC[C@H]1C(=O)O[C@H](C)[C@H](NC(=O)c2cccc(NC=O)c2O)C(=O)O[C@@H](C)[C@@H]1OC(=O)CC(C)C` [ANTIMYCIN A3], the GI50 with OVCAR-3 is 2.38 µM (inactive); in the experiment on Malme-3M, 7.28 µM (inactive); with K562 it was < 0.0123 µM (active); in the experiment with SF-539 it was 12.8 µM (inactive); in the experiment with ACHN it was 1.15 µM (inactive); with Hs-578T, 13 µM (inactive). Further, the GI50 in the experiment on NCI/ADR-RES is 5.32 µM (inactive); in the experiment on T47D, 2.19 µM (inactive); in the experiment with HL-60, 0.0968 µM (active); with LOX IMVI, < 0.01 µM (active); in the experiment with SK-OV-3, 12 µM (inactive); in the experiment on SN12C, 14.2 µM (inactive). Besides, the GI50 in the experiment on KM12 was 0.444 µM (active); with MDA-MB-231, 4.37 µM (inactive); with SK-MEL-5 it was < 0.01 µM (active); in the experiment on TK-10 it was 6.79 µM (inactive); in the experiment on SNB-19, 2.91 µM (inactive); in the experiment with SNB-75, 21.4 µM (inactive). Moreover, the GI50 in the experiment on UO-31 is 4.94 µM (inactive).
As for `O=C(O)Cc1ccccc1` [PHENYLACETIC ACID], the GI50 with OVCAR-3, with Malme-3M, in the experiment with K562, in the experiment on SF-539, with ACHN and in the experiment with Hs-578T was > 100 µM (inactive) in each case. The GI50 in the experiment with NCI/ADR-RES, in the experiment with T47D, in the experiment on HL-60, in the experiment with LOX IMVI, in the experiment with SK-OV-3 and in the experiment with SN12C was > 100 µM (inactive) in each case. The GI50 in the experiment with KM12, in the experiment with MDA-MB-231, in the experiment with SK-MEL-5, in the experiment with TK-10, with SNB-19 and with SNB-75 was > 100 µM (inactive) throughout. Moreover, in the experiment with UO-31, the GI50 is > 100 µM (inactive).
